This passage reports IC50 results from ChEMBL document CHEMBL1201862, “PubChem BioAssay data set” (2004).

The IC50 is the concentration at which inhibition is half-maximal.

The assay concerns the target Envelope glycoprotein gp160 (Human immunodeficiency virus 1, UniProt Q6QLK5). The assay can be described thus: inhibitors of HIV fusion peptide binding, primary screen, biochemical, uHTS, fluorescence dequenching (AID 1986).

Activity calls are given as the source filed them. Rule as the data show it: actives have a measured IC50 and inactives only a lower limit.

Sequence of Envelope glycoprotein gp160 (Q6QLK5 whole entry, the tested form may be a part): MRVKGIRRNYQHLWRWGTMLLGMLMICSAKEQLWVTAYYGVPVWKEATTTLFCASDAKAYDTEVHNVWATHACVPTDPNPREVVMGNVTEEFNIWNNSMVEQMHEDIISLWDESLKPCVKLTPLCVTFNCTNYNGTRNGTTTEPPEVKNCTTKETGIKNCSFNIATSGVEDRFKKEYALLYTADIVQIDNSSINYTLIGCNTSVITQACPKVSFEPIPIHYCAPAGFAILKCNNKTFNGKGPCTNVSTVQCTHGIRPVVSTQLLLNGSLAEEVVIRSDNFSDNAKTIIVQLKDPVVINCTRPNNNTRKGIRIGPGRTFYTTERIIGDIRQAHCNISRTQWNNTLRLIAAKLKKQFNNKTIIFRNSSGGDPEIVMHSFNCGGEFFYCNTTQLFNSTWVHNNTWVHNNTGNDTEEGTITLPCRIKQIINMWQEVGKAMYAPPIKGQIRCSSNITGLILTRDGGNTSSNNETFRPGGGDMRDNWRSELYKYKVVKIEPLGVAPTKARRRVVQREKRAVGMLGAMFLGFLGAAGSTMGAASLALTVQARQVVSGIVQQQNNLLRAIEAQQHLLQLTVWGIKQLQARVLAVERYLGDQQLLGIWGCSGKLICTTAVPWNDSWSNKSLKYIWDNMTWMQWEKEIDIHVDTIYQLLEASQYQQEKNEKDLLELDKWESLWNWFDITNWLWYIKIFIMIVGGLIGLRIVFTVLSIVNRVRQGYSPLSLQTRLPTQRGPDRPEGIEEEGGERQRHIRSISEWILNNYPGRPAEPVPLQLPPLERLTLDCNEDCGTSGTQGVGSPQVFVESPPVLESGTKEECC

`COc1cc(/C=C(\C#N)c2nc3ccccc3s2)cc([N+](=O)[O-])c1O`: the IC50 is 8.88 µM (active).
